Measured values taken from patent US20250064762A1, “A SUBSTITUTED AROMATIC DICARBONIC ACID AMIDE AS AN INHIBITOR OF THE FERROPTOSIS SUPPRESSOR PROTEIN-1 (FSP1)” (JULIUS-MAXIMILIANS-UNIVERSITÄT WÜRZBURG, priority 2021, published 2025).
Entries after “also recorded” stand apart in the source; their conditions may differ.

Columns and labels:
human FSP1 = biological target: T1, human FSP1 (Homo sapiens, UniProt Q9BRQ8); assay: Biolayer interferometry binding kinetics, human FSP1; settings: 25° C.
T1 construct: His6 (N, cleaved yes); made in house; host or cells: Escherichia coli BL21 pG-Tf2
T1 sequence (Q9BRQ8 1-373): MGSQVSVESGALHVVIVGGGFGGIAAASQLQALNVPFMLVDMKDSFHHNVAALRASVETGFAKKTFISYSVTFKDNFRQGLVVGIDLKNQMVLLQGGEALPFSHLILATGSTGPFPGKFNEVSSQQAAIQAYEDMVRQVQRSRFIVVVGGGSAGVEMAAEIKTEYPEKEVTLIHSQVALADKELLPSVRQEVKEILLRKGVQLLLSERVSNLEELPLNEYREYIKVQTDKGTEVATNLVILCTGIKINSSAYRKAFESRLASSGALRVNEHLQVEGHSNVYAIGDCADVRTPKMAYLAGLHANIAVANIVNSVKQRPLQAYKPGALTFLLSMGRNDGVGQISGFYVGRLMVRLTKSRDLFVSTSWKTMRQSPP
Experimental: Purified, AviTag-fused mFSP1 or hFSP1 were enzymatically biotinylated with the E. coli biotin ligase BirA. To this end, FSP1 proteins (48 μM) were incubated with purified GST-BirA in the presence of ATP and D-biotin (Sigma Aldrich) as described (Fairhead et al., 2015). GST-BirA was removed using glutathione Sepharose 4 Fast Flow (GE Healthcare), and samples were dialyzed against TNM (pH 7.4) to remove free biotin.
Biotinylated, AviTag-fused mFSP1 or hFSP1 (1.5 μM in TNM buffer supplemented with 0.005% (v/v) Tween-20) was immobilized on streptavidin-coated biosensors (Super Streptavidin/SSA Dip and Read Biosensors, ForteBio). The sensors were then quenched with 27 μM biocytin (Sigma Aldrich), and binding kinetics were measured at 25° C. on a ForteBio Octet Red 96e instrument. Dissociation was initiated after 90 s. Reference sensors were quenched with 27 μM biocytin. Raw data was double referenced, and a global exponential regression 1:1 model was applied for kinetic analyses. Data are mean values±S.D. of at least n=4 measurements. KD, dissociation constant; Kon, on-rate constant; Koff, off-rate constant.
We also determined the CPBA and iFSP1 on-rate, off-rate and dissociation constants, which are associated with the binding and unbinding reaction of target and inhibitor. […]

[1] = system: LOX-IMVI human melanoma cells; assay: FIN56-induced ferroptosis in LOX-IMVI cells with mock vector or FSP1-Venus; assay type: cell-based
Experimental: The following HT1080 fibrosarcoma cell lines were generated using CRISPR/Cas9 technology, as previously described (Doll et al., 2019): HT1080 GPX4-knockout (KO) cells (maintained in the presence of 100 μM α-tocopherol); HT1080 GPX4 knockout cells overexpressing FSP1 (GPX4-KO/FSP1-OE); GPX4-KO cells overexpressing FSP1 and re-expressing GPX4 (GPX4-KO/FSP1-OE/GPX4-OE); HT1080 FSP1-WT or FSP1-KO cells; and HT1080 FSP1-KO cells reconstituted with either FSP1-WT or FSP1-G2A. LOX-IMVI (BRAF V600E heterozygous human melanoma cells) expressing either the Venus mock vector or FSP1-Venus (Doll et al., 2019) were grown in RPMI-1640 supplemented with 10% FCS, 2 mM L-glutamine and Pen/Strep.
LOX-IMVI cells are FSP1-deficient, and were reconstituted with either mock vector (expressing Venus), or with FSP1-Venus to restore FSP1 expression, and treated with either CPBA or iFSP1 as described above (see FIG. 18B).

murine FSP1 = biological target: T2, murine FSP1 (Mus musculus, UniProt Q8BUE4); assay: In vitro FSP1 oxidoreductase (NADH consumption) assay, murine FSP1; assay type: biochemical; settings: resazurine or coQ1 as electron acceptor
T2 construct: His6 (N, cleaved yes); made in house; host or cells: Escherichia coli BL21 pG-Tf2
T2 sequence (Q8BUE4 1-373): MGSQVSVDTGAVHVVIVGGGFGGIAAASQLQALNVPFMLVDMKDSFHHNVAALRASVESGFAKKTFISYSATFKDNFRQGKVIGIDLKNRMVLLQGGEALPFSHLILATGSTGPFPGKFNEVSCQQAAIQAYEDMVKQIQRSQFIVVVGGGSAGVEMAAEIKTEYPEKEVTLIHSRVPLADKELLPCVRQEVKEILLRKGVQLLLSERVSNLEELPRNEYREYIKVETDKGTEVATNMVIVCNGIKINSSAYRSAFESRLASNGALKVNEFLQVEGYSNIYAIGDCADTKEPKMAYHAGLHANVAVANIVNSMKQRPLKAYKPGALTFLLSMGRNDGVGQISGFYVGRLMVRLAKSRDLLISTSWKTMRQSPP
Experimental: FSP1 activity assays were performed using recombinant, purified murine or human FSP1, NADH, and resazurine or coenzyme-Q1 (coQ1) as electron acceptor molecules. The following conditions were used: 200 μM resazurine were reduced with 750 nM mFSP1 or 150 nM hFSP1; 100 μM coQ1 was reduced with 400 nM mFSP1; and 137 μM coQ1 were reduced with 200 nM hFSP1. The consumption of NADH (500 μM) was measured at 340 nm in phosphate-buffered saline (80 mM Na3PO4, 300 mM NaCl; pH 7.0) at room temperature on a CLARIOstar microplate reader (BMG Labtech). Initial rates were determined, and data were fitted by linear regression using GraphPad Prism software, version 9.1.2.
In order to determine inhibition of FSP1 by CPBA, FSP1 activity was measured […] either CPBA or iFSP1 as a positive control. In vitro FSP1 oxidoreductase activity assays were performed using recombinant, purified murine or human FSP1, NADH, and resazurine or coenzyme-Q1 (coQ1) as electron acceptor molecules as described above (see FIG. 19).
In vitro FSP1 activity assays with human (see FIG. 22 C) or murine (see FIG. 22 D) FSP1 were performed as described above. Shown are NADH consumption assays using recombinant, purified human or mouse FSP1 (hFSP1, mFSP1) and resazurine or coenzyme-Q1 (CoQ1) as electron acceptor molecules.

Structure (SMILES)	affinity for human FSP1 (human FSP1)	effect in cells reconstituted with FSP1-Venus ([1]; CPBA- and FIN56-treated cells)	enhancement of the ferroptosis-inducing effect of FIN56 ([1]; FSP1-deficient cells (mock vector))	inhibition of murine FSP1 activity (murine FSP1)	effectiveness in LOX-IMVI cells ([1]; as described previously (Doll et al., Nature 2019))
O=C(Nc1ccccc1C(=O)O)c1ccc(Oc2ccc(C(=O)Nc3ccccc3C(=O)O)cc2)cc1 [CPBA, 2-[[4-[4-[(2-carboxyphenyl)carbamoyl]phenoxy]benzoyl]amino]-benzoic acid]	the affinity of iFSP1 for human FSP1 exceeds the affinity of CPBA for human FSP1	FSP1-expression rescues CPBA- and FIN56-treated cells from ferroptosis	does not enhance the ferroptosis-inducing effect of FIN56 in FSP1-deficient cells	inhibits human and murine FSP1 activity; also recorded: much more effective inhibition of murine FSP1 by CPBA compared to iFSP1	
Cc1ccc(-c2c(C#N)c(N)n3c(nc4ccccc43)c2C#N)cc1 [iFSP1, reference compound]	the affinity of iFSP1 for human FSP1 exceeds the affinity of CPBA for human FSP1			has no effect on mFSP1; also recorded: much less active against murine FSP1	ineffective in LOX-IMVI cells
